Source: EP2296651B1, “5-HYDROXYMETHYL-OXAZOLIDIN-2-ONE DERIVATIVES FOR TREATING BACTERIAL INTESTINAL DISEASES” (Actelion Pharmaceuticals Ltd., priority 2008, dated 2009)
Values after ≈ are worked out from the molar mass of the structure shown.

Columns and labels:
[1] = system: C. difficile A-1050 (ATCC 43596); assay: Spore formation at sub-MIC concentrations; format: cell-based; conditions: 0.5x the MIC; 4 days anaerobic incubation at 37°C
[2] = system: Bacteroides fragilis A-501 B 8039; assay: Agar dilution MIC, anaerobic strains; format: cell-based; conditions: A501B8039, 48 h
[3] = system: E. faecalis H 7094; assay: Broth microdilution MIC, aerobic Gram-positive bacteria; conditions: Enterococcus faecalis, H7094, 48 h
[4] = system: 209 diverse clinical isolates of C. difficile; assay: CLSI agar dilution MIC, clinical isolates; format: cell-based, Clostridium difficile; conditions: Clostridioides difficile, 48 h; 209 clinical isolates of C. difficile; read-out: MIC90
[5] = system: Bifidobacterium adolescentis A-1257 DSM 20083; assay: Agar dilution MIC, anaerobic strains; format: cell-based; conditions: DSM20083, 48 h
[6] = system: C. difficile strain NC 13366; format: cell-based; conditions: 1 and 8 µg/ml; supernatants at day 5; high density stationary phase cultures
[7] = system: Eubacterium limosum A-1259 DSM 20698; assay: Agar dilution MIC, anaerobic strains; format: cell-based
[8] = system: toxigenic C difficile strain 10465; assay: C. difficile hamster model; format: in vivo, Golden Syrian hamsters
Protocol: Golden Syrian hamsters were given a single injection of clindamycin phosphate (10 mg/kg s.c.), and a day later animals were infected by gavage with 10^5 CFU of toxigenic C difficile strain 10465. A fulminant colitis results in the majority (∼95%) of animals and develops 1 to 2 days after the administration of C. difficile. Untreated, the colitis progresses rapidly and turns into severe colitis, hemorrhagic necrosis of the cecum and death. The compound of Example 1 was administered orally as a suspension at three dosage levels (10 mg/kg, 30 mg/kg and 100 mg/kg; n = 10 per group). Vancomycin (50 mg/kg) was used as a control. Animals were treated once daily for 5 days and afterwards maintain under observation for an additional 21 days.
The animals were observed three times daily for morbidity and presence or absence of diarrhoea. The final endpoint of the study was survival. Animals judged to be in a moribund state [extended period of weight loss progressing to an emaciated state, anorexia for 24-48 h, prolonged lethargy (more than 3 days), signs of paralysis, skin erosions or trauma, hunched posture, distended abdomen] were euthanized by a single injection of sodium pentobarbital.

[9] = system: S. aureus ATCC 29213; assay: Broth microdilution MIC, aerobic Gram-positive bacteria; conditions: Staphylococcus aureus, ATCC29213, 48 h
[10] = system: E. faecium H 7965; assay: as above; conditions: Enterococcus faecium, H7965, 48 h
[11] = system: C. perfringens DSM 756; assay: microbe, parasite or virus in culture; format: cell-based; conditions: Clostridium perfringens, DSM756, 48 h, read-out: MIC regarding C. perfringens DSM 756
[12] = 100 mg/kg orally once daily for 5 days

O=C(O)c1cn(C2CC2)c2cc(N3CCC(O)(COc4ccc(N5C[C@H](CO)OC5=O)cc4F)CC3)c(F)cc2c1=O [Example 1, 1-cyclopropyl-6-fluoro-7-{4-[2-fluoro-4-((R)-5-hydroxymethyl-2-oxo-oxazolidin-3-yl)-phenoxymethyl]-4-hydroxy-piperidin-1-yl}-4-oxo-1,4-dihydro-quinoline-3-carboxylic acid]
spores of total cell count [1]: < 1% | MIC [2]: 4 µg/mL (≈ 6.83 µM) | MIC [3]: 0.5 µg/mL (≈ 0.854 µM) | MIC90 [4]: 0.25 µg/mL (≈ 0.427 µM) | MIC [5]: 0.5 µg/mL (≈ 0.854 µM) | de novo toxin A production [6]: inhibited de novo toxin A production | MIC ([7]; DSM20698, 48 h, Eubacterium limosum A-1259, DSM 20698): 1 µg/mL (≈ 1.71 µM) | less activity against Eubacterium limosum A-1259 compared to the compound of Example 5 of WO 2005/058888 ([7]; versus R1): 4 times | survival during the 5 day treatment period ([8]; 10 mg/kg orally once daily for 5 days): all | survival during the 5 day treatment period ([8]; 30 mg/kg orally once daily for 5 days): all | animals survived without relapse, relapse phase of 21 days after treatment [8, 12]: 100% | survival during the 5 day treatment period [8, 12]: all | MIC [9]: 0.25 µg/mL (≈ 0.427 µM) | MIC [10]: 0.5 µg/mL (≈ 0.854 µM) | MIC [11]: ≤ 0.03 µg/mL
